In series [1] the target is T1, Aurora kinase B (Homo sapiens, UniProt Q96GD4). The series can be described thus: Inhibition of Aurora B in human HCT116 cells assessed as inhibition of histone H3 phosphorylation by immunofluorescence assay. Type of series: cell-based, HCT-116.
A short description of series [2]: AUC (0 to 6 hrs) in rat at 10 mg/kg, po. On the set-up: time < 6 hr, dose 10 mg/kg, route oral. Type of series: ADME, organism-based. Conditions: plasma.
Series [3] deals with T1, Aurora kinase B. Description: Inhibition of Aurora B.
The next series concerns the target T2, Aurora kinase A (Homo sapiens, UniProt O14965).
T2 sequence (O14965 whole entry): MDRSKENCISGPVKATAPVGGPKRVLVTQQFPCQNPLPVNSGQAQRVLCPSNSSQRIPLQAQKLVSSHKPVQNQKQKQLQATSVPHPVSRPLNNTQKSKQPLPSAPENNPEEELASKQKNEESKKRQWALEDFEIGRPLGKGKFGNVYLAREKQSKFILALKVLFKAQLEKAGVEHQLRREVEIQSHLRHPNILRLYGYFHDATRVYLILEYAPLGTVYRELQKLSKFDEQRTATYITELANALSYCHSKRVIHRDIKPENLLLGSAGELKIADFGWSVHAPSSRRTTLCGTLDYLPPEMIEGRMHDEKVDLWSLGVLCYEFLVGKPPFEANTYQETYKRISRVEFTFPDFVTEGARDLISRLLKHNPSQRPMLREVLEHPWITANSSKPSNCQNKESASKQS
Description: Inhibition of Aurora A.

Series [4] is described as follows: Plasma clearance in rat. Type of series: ADME, organism-based.
Series [5] can be described thus: Oral bioavailability in Sprague-Dawley rat at 30 mg/kg. Type of series: ADME, organism-based. To be noted: in vivo.
Series [6] is described as follows: Oral AUC in Sprague-Dawley rat at 30 mg/kg, po. Type of series: ADME, organism-based. On the set-up: dose 30 mg/kg, route oral. To be noted: in vivo.
Series [7] in a line: AUC in CD1 mouse at 50 mg/kg, po. It is filed as ADME, organism-based. On the set-up: dose 50 mg/kg, route oral. To be noted: plasma.
Series [8] in a line: Oral AUC in cynomolgus monkey at 10 mg/kg, po. It is filed as ADME, organism-based, Macaca fascicularis. The arrangement: dose 10 mg/kg, route oral. Conditions: in vivo.
The nature of series [9]: Oral AUC in Beagle dog at 10 mg/kg, po. To be noted: in vivo. The arrangement: dose 10 mg/kg, route oral. It is filed as ADME, organism-based, Canis lupus familiaris.
Series [10] in a line: Oral bioavailability in Beagle dog at 10 mg/kg. Type of series: ADME, organism-based, Canis lupus familiaris. To be noted: beagle, in vivo.
The nature of series [11]: Oral bioavailability in cynomolgus monkey at 10 mg/kg. It is filed as ADME, organism-based, Macaca fascicularis. Conditions: in vivo.
Series [12] is described as follows: Oral bioavailability in CD1 mouse at 50 mg/kg. It is filed as ADME, organism-based. To be noted: in vivo.

T1 sequence (Q96GD4 whole entry): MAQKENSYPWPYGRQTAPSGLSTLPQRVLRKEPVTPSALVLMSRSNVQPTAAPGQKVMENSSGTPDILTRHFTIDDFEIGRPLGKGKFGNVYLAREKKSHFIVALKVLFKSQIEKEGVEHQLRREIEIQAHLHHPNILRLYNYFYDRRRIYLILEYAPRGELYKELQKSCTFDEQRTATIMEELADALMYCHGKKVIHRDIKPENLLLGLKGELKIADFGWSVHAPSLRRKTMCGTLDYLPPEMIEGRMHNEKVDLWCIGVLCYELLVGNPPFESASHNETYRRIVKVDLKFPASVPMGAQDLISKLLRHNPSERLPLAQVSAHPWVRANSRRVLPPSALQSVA

For the molecule `Cc1cn2c(-c3cn[nH]c3)cnc2c(Nc2cc(CN3CC(F)(F)C(F)(F)C3)ns2)n1.Cl`, the IC50 (usually the concentration that inhibits the measured activity by half) is 0.05 µM on Aurora kinase B [1], at most 0.013 µM at Aurora kinase B [3] and at most 0.004 µM at Aurora kinase A. Moreover, in series [2], the area under the curve AUC(0-t) – broadly, the area under the concentration-time curve up to a stated or last time point – at 6 h came to 0.11 µM·h.

Consider `Cc1cn2c(-c3cn[nH]c3)cnc2c(Nc2cc(CN3CCC(C(F)(F)F)CC3)ns2)n1.Cl`, for which the IC50 at Aurora kinase B [1] was 0.218 µM; on Aurora kinase B [3], at most 0.013 µM; on Aurora kinase A it was at most 0.004 µM. Further, the area under the curve AUC(0-t) at 6 h in [2] was determined as 1.34 µM·h.

As for `Cc1cn2c(-c3cn[nH]c3)cnc2c(Nc2cc(CN3CCCC(F)C3)ns2)n1.Cl` (stereo not given), the results for the IC50 on Aurora kinase B [1], against Aurora kinase B [3] and at Aurora kinase A were 0.193 µM, at most 0.013 µM and at most 0.004 µM, respectively. In addition, the AUC(0-t) at 6 h in [2] came out at 1.21 µM·h.

Regarding `Cl.[2H]C([2H])(c1cc(Nc2nc(C)cn3c(-c4cn[nH]c4)cnc23)sn1)N1CCCCC1`, the clearance – broadly, a measure of how efficiently the substance is removed, as volume per time – in series [4] worked out at 35 mL/min/kg.

Turning to `Cc1cn2c(-c3cn[nH]c3)cnc2c(Nc2cc(CN(CC(F)(F)F)C(C)(C)CO)ns2)n1.Cl`, the IC50 at Aurora kinase B [1] was 0.198 µM; on Aurora kinase B [3] it was at most 0.013 µM; against Aurora kinase A it was at most 0.004 µM. Further, the AUC(0-t) at 6 h in [2] worked out at 0.86 µM·h.

Consider `Cc1cn2c(-c3cn[nH]c3)cnc2c(Nc2cc(CN3CCCC3)ns2)n1`, for which the values for the IC50 at Aurora kinase B [1], on Aurora kinase B [3] and at Aurora kinase A were 0.088 µM, at most 0.013 µM and at most 0.004 µM, respectively.

As for `Cc1cn2c(-c3cn[nH]c3)cnc2c(Nc2cc(CNCCC(F)(F)F)ns2)n1.Cl`, the figures for the IC50 at Aurora kinase B [1], against Aurora kinase B [3] and at Aurora kinase A were 0.063 µM, at most 0.013 µM and at most 0.004 µM, respectively. This molecule also had an AUC(0-t) at 6 h in series [2] of 10.9 µM·h. Moreover, in series [5], the bioavailability – broadly, dose-corrected exposure relative to a reference, in per cent – was found to be 22%. Besides, the AUC (usually concentration integrated over time) turned out to be 20.5 µM·h in [6], 11.1 µM·h in series [7], 0.03 µM·h in series [8] and 0.3 µM·h in series [9]. This molecule also yielded a clearance in [4] of 12 mL/min/kg.

With `Cc1cn2c(-c3cn[nH]c3)cnc2c(Nc2cc(CN3CCC(F)(F)CC3)ns2)n1.Cl`, the IC50 at Aurora kinase B [1] is 0.074 µM; against Aurora kinase B [3], at most 0.013 µM; against Aurora kinase A it was at most 0.004 µM. Moreover, in series [2], the AUC(0-t) at 6 h is 0.95 µM·h.

Regarding `Cc1cn2c(-c3cn[nH]c3)cnc2c(Nc2cc(CN3CCCCC3)ns2)n1.Cl`, the IC50 is 0.045 µM on Aurora kinase B [1], at most 0.013 µM against Aurora kinase B [3] and at most 0.004 µM against Aurora kinase A. Moreover, the AUC(0-t) at 6 h in [2] was found to be 0.21 µM·h. The clearance in series [4] worked out at 80 mL/min/kg.

`Cc1cn2c(-c3cn[nH]c3)cnc2c(Nc2cc(CN(CC(F)F)C(C)(C)CO)ns2)n1.Cl`: the IC50 at Aurora kinase B [1] was 0.306 µM; against Aurora kinase B [3] it was at most 0.013 µM; at Aurora kinase A it was at most 0.004 µM. In series [2], this molecule gave an AUC(0-t) at 6 h of 0.28 µM·h.

Turning to `Cc1cn2c(-c3cn[nH]c3)cnc2c(Nc2cc(CN3CCCC(F)(F)C3)ns2)n1.Cl`, the IC50 on Aurora kinase B [1] was 0.079 µM; against Aurora kinase B [3] it was at most 0.013 µM; at Aurora kinase A, at most 0.004 µM. Moreover, the AUC(0-t) at 6 h in series [2] amounted to 1.56 µM·h.

Consider `Cc1cn2c(-c3cn[nH]c3)cnc2c(Nc2cc(CN3CCC(F)CC3)ns2)n1.Cl`, for which the bioavailability in series [10] came to 38%; in series [11], 3%; in series [12] it was 10%; in series [5], 21%. Moreover, the IC50 on Aurora kinase B [1] is 0.086 µM; on Aurora kinase B [3], at most 0.013 µM; at Aurora kinase A, at most 0.004 µM. The AUC(0-t) at 6 h in [2] stood at 2.2 µM·h. In addition, the AUC in series [6] amounted to 8 µM·h; in series [7], 1.2 µM·h; in series [8], 0.4 µM·h; in [9], 6.1 µM·h.

For `Cc1cn2c(-c3cn[nH]c3)cnc2c(Nc2cc(CNCC(F)(F)C(F)(F)F)ns2)n1.Cl`, the IC50 at Aurora kinase B [1] was 0.051 µM; at Aurora kinase B [3], at most 0.013 µM; against Aurora kinase A it was at most 0.004 µM. For the same molecule, in series [2], the area under the curve AUC(0-t) at 6 h is 3.42 µM·h.

Regarding `Cc1cn2c(-c3cn[nH]c3)cnc2c(Nc2cc(CN3CC[C@@H](F)C3)ns2)n1.Cl`, the figures for the IC50 at Aurora kinase B [1], on Aurora kinase B [3] and on Aurora kinase A were 0.082 µM, at most 0.013 µM and at most 0.004 µM, respectively. Also, the AUC(0-t) at 6 h in series [2] worked out at 0.74 µM·h.

Take `Cc1cn2c(-c3cn[nH]c3)cnc2c(Nc2cc(CN3CC[C@H](F)C3)ns2)n1.Cl`: the IC50 was 0.093 µM at Aurora kinase B [1], at most 0.013 µM against Aurora kinase B [3] and at most 0.004 µM against Aurora kinase A. Further, in series [2], the AUC(0-t) at 6 h turned out to be 0.76 µM·h.

With `Cc1cn2c(-c3cn[nH]c3)cnc2c(Nc2cc(CN3CC(F)(F)C3)ns2)n1.O=C(O)C(F)(F)F`, the IC50 at Aurora kinase B [1] is 0.076 µM; at Aurora kinase B [3], at most 0.013 µM; at Aurora kinase A, at most 0.004 µM. Moreover, the AUC(0-t) at 6 h in [2] turned out to be 12.1 µM·h. In series [5], this molecule displayed a bioavailability of 12%. For the same molecule, the AUC in series [6] was determined as 7.1 µM·h; in series [7], 7.1 µM·h; in [8], 0.1 µM·h; in series [9], 3.8 µM·h.

`Cl.[2H]C([2H])(NCCC(F)(F)F)c1cc(Nc2nc(C)cn3c(-c4cn[nH]c4)cnc23)sn1` had a clearance in [4] of 5.1 mL/min/kg.

On to `Cc1cn2c(-c3cn[nH]c3)cnc2c(Nc2cc(CN3CC(F)C3)ns2)n1.O=C(O)C(F)(F)F`, for which the IC50 on Aurora kinase B [1] is 0.191 µM; on Aurora kinase B [3] it was at most 0.013 µM; against Aurora kinase A, at most 0.004 µM. In [2], this molecule yielded an AUC(0-t) at 6 h of 0.18 µM·h.

The record behind these values is ChEMBL document CHEMBL1649074, “Aurora kinase inhibitors based on the imidazo[1,2-a]pyrazine core: fluorine and deuterium incorporation improve oral absorption and exposure” (J Med Chem, 2011).
